This note sets out measurements from patent publication US7786095B2, “Amphiphilic macrocyclic derivatives and their analogues” (University College Dublin, priority 2000, dated 2010).

Holding throughout (assay type): physicochemical
Series [1] in a line: Dynamic light scattering of cyclodextrin vesicles dispersed in water by sonication. The conditions noted are these: sonicated 2 hours (HE-SC12 room temperature, HE-SC16 50° C.). How it is done:
(§1) The amphiphilic cyclodextrins are dispersed in water by sonication of a thin film (cast by slow rotary evaporation of a solution of the cyclodextrins in chloroform) in a sonication bath. HE-SC12 is sonicated for 2 hours at room temperature and HE-SC16 is sonicated for 2 hours at 50° C. Dynamic light scattering indicates the presence of vesicles with an average diameter of 170 nm. Vesicles of cyclodextrins of 50-300 nm diameter are also observed by transmission electron microscopy using uranyl acetate as a negative staining agent (FIG. 1). Upon prolonged sonication (9 hours) of a solution of HE-SC12, a monodisperse solution of spherical vesicles with an average diameter of 60 nm is obtained (FIG. 2). Thus, the particle size can be directed by sonication time, in order to obtain a size suitable for specific molecular inclusion or specific therapeutic use.

Series [2] is described as follows: Differential scanning calorimetry of a 10% (w/w) dispersion in water. The protocol:
Heptakis(6-hexadecylthio-2-oligoethylenoxy)-β-cyclodextrin was analysed using differential scanning calorimetry. […] The transition occurred around 48-49° C. and the enthalpy of transition amounted to 59 kJ/mol cyclodextrin. This typical Lβ-L[…] transition was confirmed in a measurement of the fluorescence polarisation of diphenylhexatriene in the presence of a vesicle solution by a standard method (R. R. C. New, Liposomes: a practical approach, Oxford University Press, 1990). Thus, vesicles of the amphiphilic cyclodextrins undergo thermotropic phase transitions which depend on molecular structure, and which can direct important parameters such as vesicle stability and bilayer permeability.
A general note: Differential scanning calorimetry records heat flow against a reference as temperature is scanned.

Series [3] can be described thus: Carboxyfluorescein entrapment in vesicles: fluorescence increase on Triton X-100 solubilisation. Conditions: 1000-fold dilution, 0.1% w/w Triton X-100, two independent preparations. How it is done:
(§2) Vesicles of heptakis(6-dodecylthio-2-oligoethylenoxy)-β-cyclodextrin and […] were prepared by sonication in a buffered solution of carboxyfluorescein (CF).
(i) Small aliquots of the solutions of the cyclodextrin vesicles (5-20 mM) were diluted 1000-fold, resulting in immediate dilution of the non-entrapped CF with concomitant intense CF fluorescence, which was measured. The fluorescence of entrapped CF is negligible due to self-quenching. Next, the vesicles in the diluted solution were solubilised by the addition of 0.1% w/w of the detergent Triton X-100, leading to release and dilution of entrapped CF, with concomitant increase of CF fluorescence, which was measured. In this concentration range (ca. […]). The fluorescence intensity of CF correlates linearly with its concentration, and the incremental change of fluorescence upon addition of Triton X-100 is a direct measure of the percentage of entrapped volume of the vesicles relative to the total volume of the solution. The entrapped volume amounted to 7.7+/−1.9% and 11.4+/−2.7% for two independent preparations of HE-SC16; and to 5.0+/−2.4% and 7.2+/−5.3% for two independent preparations of HE-SC12.

A short description of series [4]: Spontaneous release of carboxyfluorescein from gel-filtered vesicles over time. Conditions: room temperature, after 3 days. The protocol:
as §2
(ii) CF entrapped in the vesicles was separated from free (non-entrapped) CF by gel filtration using Sephadex G25. […] The peak of entrapped CF coincided with the elution of vesicles (FIG. 4). This confirms the existence of an aqueous inner compartment within the vesicles. Furthermore, as anticipated, the amount of entrapped CF in cyclodextrin vesicles correlated with the cyclodextrin concentration.
(iii) The spontaneous release of CF from vesicles of HE-SC16 (separated from free CF by gel filtration) was measured over time. At room temperature, the leakage of CF was limited, and the vesicles retained more than 75% of CF after 3 days (FIG. 5).

Series [5] in a line: Transmission electron microscopy of cyclodextrin vesicles (uranyl acetate negative staining). The conditions noted are these: prolonged sonication (9 hours), monodisperse solution. How it is done:
as §1

Where “and” joins values, the source holds several entries; their conditions need not be identical. Equal entries are not always repeated.

For “heptakis(6-hexadecylthio-2-oligoethylenoxy)-β-cyclodextrin [HE-SC16]”, the “average diameter of vesicles (dynamic light scattering)” value in series [1] amounted to 170 nm. In series [2], the “endothermic phase transition temperature (DSC heating scan)” value was 48-49 °C and the enthalpy of transition is listed as 59 kJ/mol cyclodextrin. Further, the “entrapped volume of the vesicles relative to the total volume of the solution” value in series [3] is 7.7+/−1.9% and 11.4+/−2.7%. Besides, the “CF retained by vesicles” value in series [4] was “more than 75%”.

On to “heptakis(6-dodecylthio-2-oligoethylenoxy)-β-cyclodextrin [HE-SC12]”, for which the “average diameter of vesicles (dynamic light scattering)” value in series [1] came to 170 nm. In addition, the “average diameter of spherical vesicles after prolonged sonication” value in series [5] came to 60 nm. Moreover, the “entrapped volume of the vesicles relative to the total volume of the solution” value in series [3] was 5.0+/−2.4% and 7.2+/−5.3%.
